Results on 1 compound are retold here after publication PMC10150366, “Discovery of an In Vivo Chemical Probe for BCL6 Inhibition by Optimization of Tricyclic Quinolinones” (Journal of Medicinal Chemistry, 2023).

What all share (format): cell-based
In assay [1] the target is T1, HTR1A (Homo sapiens, UniProt P08908).
T1 sequence (P08908 1-422): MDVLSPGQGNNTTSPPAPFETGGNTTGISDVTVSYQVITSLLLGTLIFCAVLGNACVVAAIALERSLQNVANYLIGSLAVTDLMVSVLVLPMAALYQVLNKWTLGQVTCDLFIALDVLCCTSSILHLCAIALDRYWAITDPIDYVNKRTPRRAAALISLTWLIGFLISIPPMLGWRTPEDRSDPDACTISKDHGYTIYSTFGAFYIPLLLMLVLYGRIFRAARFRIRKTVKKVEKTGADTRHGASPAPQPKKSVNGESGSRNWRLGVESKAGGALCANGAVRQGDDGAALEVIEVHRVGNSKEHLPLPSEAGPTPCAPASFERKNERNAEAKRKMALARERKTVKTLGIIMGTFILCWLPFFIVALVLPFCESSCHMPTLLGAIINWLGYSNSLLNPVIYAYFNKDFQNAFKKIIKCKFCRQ
Kind of assay: SAFETYscan cAMP HTR1A Antagonist. An excerpt:
(§1) Supplement jm3c00155_si_002.xlsx, sheet "SAFETYScan" | column: RC50 (uM); Max Response

For another assay, the system named is HT. Kind of assay: 14-day cell proliferation assay, HT. The conditions noted are these: Homo sapiens, 14-day assay. The source says: DMSO final concentration.
After a short centrifugation the
(1st emission filter) / 450-80 nm (2nd emission filter). The % inhibition at each test concentration was […]
sigmoidal four-parameter logistic fit equation.
2.3 Cell proliferation assay
Aldrich) supplemented with 10% FBS (Gibco). Compounds were initially dispensed into 96-well U-bottom […]
transferred onto the cells.
Assay plates containing cells
(Beckman Coulter). The volume of medium containing 2500 cells in the control well was calculated and this volume of cells was transferred from every well of the assay plates to the corresponding well of the fresh plates containing compound. After 14 days, CellTiter Glo reagent (Promega) was added to the medium in each well of the assay plate at a ratio of 1:2, mixed on a plate shaker, then incubated at room temperature for 10 minutes. Luminescence was measured using an Envision plate reader (Perkin Elmer) and the relative luminescence at each compound concentration, compared to DMSO alone, was calculated. GI50 were determined using a 4-parameter curve fit in Dotmatics (Bishops Stortford, UK).

Another assay has as its target CNR1 (Homo sapiens, UniProt P21554). As to the kind of experiment: SAFETYscan cAMP CNR1 Agonist.
Description: as §1

A further assay has as its target GABAA (Homo sapiens, UniProt P14867+P18507+P47870). Kind of assay: SAFETYscan Ion Channel GABAA Blocker.
Description: as §1

The target in assay [2] is T2, GR (Homo sapiens, UniProt P04150).
T2 sequence (P04150 1-777): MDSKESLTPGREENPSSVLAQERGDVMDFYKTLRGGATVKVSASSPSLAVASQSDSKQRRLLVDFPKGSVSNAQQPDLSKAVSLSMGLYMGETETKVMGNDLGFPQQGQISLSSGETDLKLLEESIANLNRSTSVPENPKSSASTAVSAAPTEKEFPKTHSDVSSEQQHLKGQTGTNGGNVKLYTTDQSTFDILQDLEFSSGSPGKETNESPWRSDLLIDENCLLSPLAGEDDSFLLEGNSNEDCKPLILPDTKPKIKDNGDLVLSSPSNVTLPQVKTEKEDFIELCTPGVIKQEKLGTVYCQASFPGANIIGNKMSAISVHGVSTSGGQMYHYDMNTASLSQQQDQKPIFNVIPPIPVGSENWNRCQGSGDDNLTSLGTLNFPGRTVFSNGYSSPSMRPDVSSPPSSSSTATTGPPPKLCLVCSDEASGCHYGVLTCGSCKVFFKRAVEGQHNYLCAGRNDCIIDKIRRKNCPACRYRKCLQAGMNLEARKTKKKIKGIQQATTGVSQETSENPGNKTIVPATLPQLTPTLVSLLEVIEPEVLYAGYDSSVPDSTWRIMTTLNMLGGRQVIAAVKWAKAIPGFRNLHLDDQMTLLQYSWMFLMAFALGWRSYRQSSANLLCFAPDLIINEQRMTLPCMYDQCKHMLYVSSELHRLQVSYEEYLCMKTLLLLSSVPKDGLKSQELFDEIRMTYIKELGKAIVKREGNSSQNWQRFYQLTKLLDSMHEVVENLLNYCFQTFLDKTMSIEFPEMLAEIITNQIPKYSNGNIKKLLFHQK
As to the kind of experiment: SAFETYscan NHR Protein Interaction GR Antagonist.
Description: as §1

In a further assay the target is nAChR(a4/b2) (Homo sapiens, UniProt P17787+P43681). As to the kind of experiment: SAFETYscan Ion Channel nAChR(a4/b2) Blocker.
Description: as §1

Assay [3] has as its target T3, CHRM3 (Homo sapiens, UniProt P20309). Kind of assay: SAFETYscan Calcium Flux CHRM3 Agonist.
Description: as §1

For another assay, the target named is CNR2 (Homo sapiens, UniProt P34972). As to the kind of experiment: SAFETYscan cAMP CNR2 Antagonist.
Description: as §1

A further assay addresses HTR2B (Homo sapiens, UniProt P41595). As to the kind of experiment: SAFETYscan Calcium Flux HTR2B Antagonist.
Description: as §1

Assay [4] has as its target T1, HTR1A. Kind of assay: SAFETYscan cAMP HTR1A Agonist.
Description: as §1

In assay [5] the target is T2, GR. As to the kind of experiment: SAFETYscan NHR Protein Interaction GR Agonist.
Description: as §1

The target in assay [6] is T3, CHRM3. Kind of assay: SAFETYscan Calcium Flux CHRM3 Antagonist.
Description: as §1

T3 sequence (P20309 whole entry): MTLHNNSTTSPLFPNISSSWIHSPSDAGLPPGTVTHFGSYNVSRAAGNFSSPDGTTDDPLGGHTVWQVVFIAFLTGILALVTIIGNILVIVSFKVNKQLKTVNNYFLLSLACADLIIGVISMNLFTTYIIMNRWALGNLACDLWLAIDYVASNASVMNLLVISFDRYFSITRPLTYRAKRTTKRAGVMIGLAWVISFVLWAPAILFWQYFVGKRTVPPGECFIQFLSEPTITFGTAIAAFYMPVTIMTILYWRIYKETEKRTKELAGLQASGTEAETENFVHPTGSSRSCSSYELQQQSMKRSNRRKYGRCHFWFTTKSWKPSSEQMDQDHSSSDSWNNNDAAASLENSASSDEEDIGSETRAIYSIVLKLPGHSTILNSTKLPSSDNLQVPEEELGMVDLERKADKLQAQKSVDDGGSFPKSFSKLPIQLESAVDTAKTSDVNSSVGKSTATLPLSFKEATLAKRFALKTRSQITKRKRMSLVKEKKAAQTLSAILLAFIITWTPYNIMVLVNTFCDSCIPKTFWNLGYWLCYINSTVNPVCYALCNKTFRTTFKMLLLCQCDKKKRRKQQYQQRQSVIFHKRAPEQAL
Chain of nAChR(a4/b2) (P43681 29-627 limits assumed): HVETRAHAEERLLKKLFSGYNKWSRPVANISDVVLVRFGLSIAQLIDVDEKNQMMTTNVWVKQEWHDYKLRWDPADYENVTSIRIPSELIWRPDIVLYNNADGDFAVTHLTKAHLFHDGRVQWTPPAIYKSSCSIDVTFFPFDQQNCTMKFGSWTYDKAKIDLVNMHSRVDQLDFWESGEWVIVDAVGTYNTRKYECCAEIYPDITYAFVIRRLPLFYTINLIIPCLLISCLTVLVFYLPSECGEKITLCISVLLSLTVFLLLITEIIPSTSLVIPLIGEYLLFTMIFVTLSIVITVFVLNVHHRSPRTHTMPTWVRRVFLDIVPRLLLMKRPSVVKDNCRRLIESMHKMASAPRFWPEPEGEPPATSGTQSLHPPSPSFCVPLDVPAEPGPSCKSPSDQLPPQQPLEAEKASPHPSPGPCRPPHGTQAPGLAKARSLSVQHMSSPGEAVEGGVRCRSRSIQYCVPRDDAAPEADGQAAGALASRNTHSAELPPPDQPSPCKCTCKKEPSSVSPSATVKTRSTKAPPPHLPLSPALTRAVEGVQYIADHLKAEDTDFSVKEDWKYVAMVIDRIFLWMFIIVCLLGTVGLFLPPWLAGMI
Chain of nAChR(a4/b2) (P17787 26-502): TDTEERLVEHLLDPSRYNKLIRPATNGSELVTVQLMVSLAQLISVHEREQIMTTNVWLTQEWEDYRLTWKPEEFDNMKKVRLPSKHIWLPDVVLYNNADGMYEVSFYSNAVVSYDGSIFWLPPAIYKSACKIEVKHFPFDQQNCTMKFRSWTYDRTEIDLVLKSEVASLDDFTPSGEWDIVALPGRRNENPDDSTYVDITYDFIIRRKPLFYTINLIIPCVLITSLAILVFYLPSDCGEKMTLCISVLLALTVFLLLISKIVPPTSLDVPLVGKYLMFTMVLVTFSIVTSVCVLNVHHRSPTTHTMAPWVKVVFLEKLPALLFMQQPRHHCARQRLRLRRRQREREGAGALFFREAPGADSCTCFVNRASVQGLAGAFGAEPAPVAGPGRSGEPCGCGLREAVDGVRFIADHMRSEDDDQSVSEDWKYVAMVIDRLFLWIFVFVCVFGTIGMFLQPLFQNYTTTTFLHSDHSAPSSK
Chain of GABAA (P14867 28-456): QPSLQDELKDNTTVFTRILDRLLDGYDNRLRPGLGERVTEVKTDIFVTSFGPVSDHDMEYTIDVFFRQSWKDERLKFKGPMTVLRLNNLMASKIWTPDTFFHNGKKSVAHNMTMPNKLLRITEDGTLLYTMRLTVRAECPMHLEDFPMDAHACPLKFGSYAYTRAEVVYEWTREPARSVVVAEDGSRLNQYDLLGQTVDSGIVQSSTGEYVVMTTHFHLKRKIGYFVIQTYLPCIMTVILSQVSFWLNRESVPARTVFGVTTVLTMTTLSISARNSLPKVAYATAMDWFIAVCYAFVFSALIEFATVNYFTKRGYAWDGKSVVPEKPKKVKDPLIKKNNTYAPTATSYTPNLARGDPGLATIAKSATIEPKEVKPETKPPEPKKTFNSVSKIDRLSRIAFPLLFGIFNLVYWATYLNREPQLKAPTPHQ
Chain of GABAA (P47870 26-512): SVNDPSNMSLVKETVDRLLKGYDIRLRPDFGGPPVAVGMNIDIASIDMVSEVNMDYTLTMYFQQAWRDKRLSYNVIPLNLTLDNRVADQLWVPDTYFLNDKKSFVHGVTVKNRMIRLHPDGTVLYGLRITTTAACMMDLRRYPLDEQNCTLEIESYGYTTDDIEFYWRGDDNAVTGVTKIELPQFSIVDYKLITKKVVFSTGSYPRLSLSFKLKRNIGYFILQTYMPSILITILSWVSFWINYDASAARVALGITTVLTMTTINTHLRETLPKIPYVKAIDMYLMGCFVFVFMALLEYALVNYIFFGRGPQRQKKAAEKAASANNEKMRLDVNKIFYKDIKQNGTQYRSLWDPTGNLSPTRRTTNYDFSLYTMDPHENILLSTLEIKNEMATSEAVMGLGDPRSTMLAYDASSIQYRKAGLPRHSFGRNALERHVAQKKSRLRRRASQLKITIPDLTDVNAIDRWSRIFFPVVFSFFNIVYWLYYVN
Chain of GABAA (P18507 40-475): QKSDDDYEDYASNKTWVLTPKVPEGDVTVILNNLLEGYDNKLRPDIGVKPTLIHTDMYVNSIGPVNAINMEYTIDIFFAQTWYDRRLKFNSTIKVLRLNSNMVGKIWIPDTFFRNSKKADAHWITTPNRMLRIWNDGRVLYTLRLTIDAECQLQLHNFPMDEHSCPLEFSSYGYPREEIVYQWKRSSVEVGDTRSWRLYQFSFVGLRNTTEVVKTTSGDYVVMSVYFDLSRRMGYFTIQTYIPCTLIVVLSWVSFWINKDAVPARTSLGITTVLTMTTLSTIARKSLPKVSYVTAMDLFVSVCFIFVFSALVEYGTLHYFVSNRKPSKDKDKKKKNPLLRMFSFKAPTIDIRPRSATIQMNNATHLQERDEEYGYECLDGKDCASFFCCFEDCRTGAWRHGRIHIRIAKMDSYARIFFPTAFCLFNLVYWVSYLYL
Chain of CNR2 (P34972 whole entry): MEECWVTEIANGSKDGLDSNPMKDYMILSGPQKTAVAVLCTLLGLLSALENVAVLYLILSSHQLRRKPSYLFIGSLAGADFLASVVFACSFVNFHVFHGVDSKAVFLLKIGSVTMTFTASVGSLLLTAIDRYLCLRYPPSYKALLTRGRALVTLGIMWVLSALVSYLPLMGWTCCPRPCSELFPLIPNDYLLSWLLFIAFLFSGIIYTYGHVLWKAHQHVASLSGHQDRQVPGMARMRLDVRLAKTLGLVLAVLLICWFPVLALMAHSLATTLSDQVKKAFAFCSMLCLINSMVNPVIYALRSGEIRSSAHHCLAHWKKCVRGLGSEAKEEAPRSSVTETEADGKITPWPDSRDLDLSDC
Chain of HTR2B (P41595 whole entry): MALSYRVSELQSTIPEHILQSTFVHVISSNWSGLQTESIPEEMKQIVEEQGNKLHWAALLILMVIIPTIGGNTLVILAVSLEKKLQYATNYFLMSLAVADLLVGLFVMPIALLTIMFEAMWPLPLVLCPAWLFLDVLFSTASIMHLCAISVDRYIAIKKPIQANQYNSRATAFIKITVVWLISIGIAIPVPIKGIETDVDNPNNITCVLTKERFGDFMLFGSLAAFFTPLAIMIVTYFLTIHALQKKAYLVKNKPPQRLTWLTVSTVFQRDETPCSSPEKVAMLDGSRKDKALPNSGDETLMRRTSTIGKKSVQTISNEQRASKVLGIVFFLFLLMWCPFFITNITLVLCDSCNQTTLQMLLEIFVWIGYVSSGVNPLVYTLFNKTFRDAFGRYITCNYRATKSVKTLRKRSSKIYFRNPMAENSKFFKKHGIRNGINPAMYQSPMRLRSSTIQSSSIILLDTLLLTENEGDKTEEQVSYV
Chain of CNR1 (P21554 whole entry): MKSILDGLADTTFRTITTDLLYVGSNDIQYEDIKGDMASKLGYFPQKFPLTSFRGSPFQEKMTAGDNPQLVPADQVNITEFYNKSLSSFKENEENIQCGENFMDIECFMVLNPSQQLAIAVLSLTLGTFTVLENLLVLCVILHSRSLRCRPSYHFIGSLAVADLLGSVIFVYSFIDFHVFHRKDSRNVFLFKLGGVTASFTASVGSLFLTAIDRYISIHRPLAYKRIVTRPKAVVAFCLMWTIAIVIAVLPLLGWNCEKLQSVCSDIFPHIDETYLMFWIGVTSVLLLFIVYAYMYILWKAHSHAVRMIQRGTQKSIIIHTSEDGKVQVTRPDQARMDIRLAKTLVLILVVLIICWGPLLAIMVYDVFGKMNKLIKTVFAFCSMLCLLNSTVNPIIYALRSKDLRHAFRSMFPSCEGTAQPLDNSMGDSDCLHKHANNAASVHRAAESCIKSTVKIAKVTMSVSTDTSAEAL

Take `Cn1c(=O)c2c(c3cc(Nc4ccnc(F)c4Cl)ccc31)N[C@@H](C1CC1)C(F)(F)CO2` [compound 17, (S)-10-((3-chloro-2-fluoropyridin-4-yl)amino)-2-cyclopropyl-3,3-difluoro-7-methyl-1,2,3,4-tetrahydro-[1,4]oxazepino[2,3-c]quinolin-6(7H)-one]: the IC50 at HTR1A [1], against GABAA, at GR [2] (read-out: RC50 (IC50)), against nAChR(a4/b2), on CNR2 and on HTR2B was over 10 µM throughout. For the same compound, the IC50 at CHRM3 [6] was over 10 µM. Besides, the Emax on HTR1A [1] (HTR1A, cAMP, Antagonist, read-out: Max Response) was 0%; at CNR1 (CNR1, cAMP, Agonist, read-out: Max Response), 27.3%; at GABAA (GABAA, Ion Channel, Blocker, read-out: Max Response), 0%; on GR [2] (read-out: Max Response), 12.3%; on nAChR(a4/b2) (nAChR(a4/b2), Ion Channel, Blocker, read-out: Max Response) it was 0%; at CHRM3 [3] (CHRM3, Calcium Flux, Agonist, read-out: Max Response), 0%. The Emax stood at 0% on CNR2 (CNR2, cAMP, Antagonist, read-out: Max Response); 0% at HTR2B (HTR2B, Calcium Flux, Antagonist, read-out: Max Response); 45.6% at HTR1A [4] (HTR1A, cAMP, Agonist, read-out: Max Response); 0% on GR [5] (read-out: Max Response); 1.21% on CHRM3 [6] (CHRM3, Calcium Flux, Antagonist, read-out: Max Response). In the assay on HT, this compound gave a GI50 of 0.545 µM. Further, the EC50 on CNR1, on CHRM3 [3], at HTR1A [4] and at GR [5] (read-out: RC50 (EC50)) was over 10 µM each time.
